Test results: paper PMC4883699 (Bioorganic & medicinal chemistry, 2009)

Experiments:
[1] = Cytotoxicity on Vero cells; settings: African green monkey
[2] = tested on: P. berghei (NK-65 strain); experiment: In vivo antimalarial activity in P. berghei infected mice; design: species or system mice (Swiss Webster); settings: for apparent toxicity in vivo: oral, 30 mg/kg once daily for three days, mice
in vitro = settings: African green monkey
[3] = tested on: Mycobacterium intracellulare; experiment: In vitro antimicrobial activity, M. intracellulare; type: cell-based; settings: read-out: M. intracellulare IC50
[4] = tested on: African green monkey kidney fibroblast cells (Vero); settings: cited from earlier work
malaria parasite = settings: cited from earlier work; for reduction in parasitemia: oral, 2 × 100 μmol/kg; for survival times versus chloroquine or artemisinin treated mice: single dose 50 or 100 μmol/kg
[5] = tested on: Plasmodium falciparum (D6 clone, Sierra Leone, chloroquine sensitive); experiment: In vitro antimalarial activity, chloroquine sensitive D6 clone; type: cell-based; settings: D6, read-out: P. falciparum (D6 Clone) IC50
[6] = tested on: Plasmodium falciparum (W2 clone, IndoChina, chloroquine resistant); experiment: In vitro antimalarial activity, chloroquine resistant W2 clone; type: cell-based; settings: W2, read-out: P. falciparum (W2 Clone) IC50
[7] = Vero cells (African green monkey kidney fibroblast cells)

Work on CCC(=O)Nc1ccc2[nH]c3c(C4=C[C@@]5(O)CC/C=C\CCCCN6CC[C@@H]4[C@]4(C[C@@H]7/C=C\CCCCN7[C@H]45)C6)nccc3c2c1 [Compound 6, 6-n-Propamidomanzamine A] yielded an IC50 [1, 7] of over 0.47 µM.
For CC(C)(C)CC(=O)Nc1ccc2[nH]c3c(C4=C[C@@]5(O)CC/C=C\CCCCN6CC[C@@H]4[C@]4(C[C@@H]7/C=C\CCCCN7[C@H]45)C6)nccc3c2c1 [Compound 13, 6-(t-Butyl)-acetamidomanzamine A], the IC50 [1, 7] was over 0.47 µM.
With O=C(Nc1ccc2[nH]c3c(C4=C[C@@]5(O)CC/C=C\CCCCN6CC[C@@H]4[C@]4(C[C@@H]7/C=C\CCCCN7[C@H]45)C6)nccc3c2c1)C1CCCCC1 [Compound 14, 6-Cyclohexamidomanzamine A] the IC50 [1] was over 0.47 µM and the “apparent toxicity in vivo” value [2] was “no apparent toxicity”.
CC(C)(C)CC(=O)Nc1cccc2c1[nH]c1c(C3=C[C@@]4(O)CC/C=C\CCCCN5CC[C@@H]3[C@]3(C[C@@H]6/C=C\CCCCN6[C@H]34)C5)nccc12 [Compound 23, 8-(t-Butyl)-acetamidomanzamine A] showed an IC50 (in vitro) of over 0.47 µM.
Work on CCCCC(=O)Nc1ccc2[nH]c3c(C4=C[C@@]5(O)CC/C=C\CCCCN6CC[C@@H]4[C@]4(C[C@@H]7/C=C\CCCCN7[C@H]45)C6)nccc3c2c1 [Compound 9, 6-n-Pentamidomanzamine A] yielded an IC50 (in vitro) of over 0.47 µM.
For O=C(Nc1cccc2c1[nH]c1c(C3=C[C@@]4(O)CC/C=C\CCCCN5CC[C@@H]3[C@]3(C[C@@H]6/C=C\CCCCN6[C@H]34)C5)nccc12)C1CCCCC1 [Compound 24, 8-Cyclohexamidomanzamine A], the IC50 (in vitro) was over 0.47 µM.
With CC(C)C(=O)Nc1ccc2[nH]c3c(C4=C[C@@]5(O)CC/C=C\CCCCN6CC[C@@H]4[C@]4(C[C@@H]7/C=C\CCCCN7[C@H]45)C6)nccc3c2c1 [Compound 8, 6-Isobutamidomanzamine A] the IC50 [1] was over 0.47 µM.
For O[C@]12C=C(c3nccc4c3[nH]c3ccccc34)[C@@H]3CCN(CCCC/C=C\CC1)C[C@@]31C[C@@H]3/C=C\CCCCN3[C@H]12 [Compound 1, Manzamine A], the IC50 [1] is listed as 0.365 µM, the IC50 [3] is listed as 0.64 µM and the “TC50 against Vero cells” value [4] is listed as 0.365 µM. For the same compound, the reduction in parasitemia (malaria parasite) was 90% and the “survival times versus chloroquine or artemisinin treated mice” value (malaria parasite) was “significant improvements in survival times”.
For CCN(CC)CCCC(C)Nc1ccnc2cc(Cl)ccc12 (centres unmarked) [Chloroquine], the “suppression of the parasitemia” value ([2]; chloroquine control, 10 mg/kg, three doses) was 100%, the IC50 [5] was 0.05 µM and the IC50 [6] was 0.484 µM.
CCCCC(=O)Nc1cccc2c1[nH]c1c(C3=C[C@@]4(O)CC/C=C\CCCCN5CC[C@@H]3[C@]3(C[C@@H]6/C=C\CCCCN6[C@H]34)C5)nccc12 [Compound 19, 8-n-Pentamidomanzamine A] gave an IC50 (in vitro) of over 0.47 µM.
Compound CC(C)(C)C(=O)Nc1ccc2[nH]c3c(C4=C[C@@]5(O)CC/C=C\CCCCN6CC[C@@H]4[C@]4(C[C@@H]7/C=C\CCCCN7[C@H]45)C6)nccc3c2c1 [Compound 10, 6-Pivalamidomanzamine A] has an IC50 [1, 7] of over 0.47 µM.
In the case of CC(C)C(=O)Nc1cccc2c1[nH]c1c(C3=C[C@@]4(O)CC/C=C\CCCCN5CC[C@@H]3[C@]3(C[C@@H]6/C=C\CCCCN6[C@H]34)C5)nccc12 [Compound 18, 8-Isobutamidomanzamine A], the IC50 [1, 7] is reported as over 0.47 µM.
For Oc1cccc2c1[nH]c1c(C3=C[C@@]4(O)CC/C=C\CCCCN5CC[C@@H]3[C@]3(C[C@@H]6/C=C\CCCCN6[C@H]34)C5)nccc12 [Compound 2, 8-Hydroxymanzamine A], the reduction in parasitemia (malaria parasite) is listed as 90% and the “survival times versus chloroquine or artemisinin treated mice” value (malaria parasite) is listed as “significant improvements in survival times”.
For CCCCCC(=O)Nc1cccc2c1[nH]c1c(C3=C[C@@]4(O)CC/C=C\CCCCN5CC[C@@H]3[C@]3(C[C@@H]6/C=C\CCCCN6[C@H]34)C5)nccc12 [Compound 21, 8-n-Hexamidomanzamine A], the “apparent toxicity in vivo” value [2] was “no apparent toxicity”.
Compound CCCCCC(=O)Nc1ccc2[nH]c3c(C4=C[C@@]5(O)CC/C=C\CCCCN6CC[C@@H]4[C@]4(C[C@@H]7/C=C\CCCCN7[C@H]45)C6)nccc3c2c1 [Compound 11, 6-n-Hexamidomanzamine A] has an IC50 (in vitro) of over 0.47 µM.
